Source: US20250353891A1 (MEDIMMUNE LIMITED, priority 2022, published 2025)
Like-named read-outs stand apart in the source and are kept apart here. Starred links: 1 amine or outer side, 2 acyl side, 3 side chain; linkers in the order of their positions; H or OH if unused. Non-standard residues stand in square brackets, D forms with d. Residues, ends and D or L forms follow the SMILES beside them. Groups on a side chain read outwards from the residue. *: point of attachment. Dip = N[C@H](C(=O)O)C(c1ccccc1)c1ccccc1; γGlu = O=C(O)[C@H](CCC(=O)[*:2])N[*:1]; Stearoyl = CCCCCCCCCCCCCCCCCC(=O)*; Palmitoyl = CCCCCCCCCCCCCCCC(=O)*; αMeF = C[C@](N)(Cc1ccccc1)C(=O)O; PEG4 = NCCOCCOCCOCCOCCC(=O)O; Nle = CCCC[C@H](N)C(=O)O; PEG2 = NCCOCCOCCC(=O)O; Aib = CC(C)(N)C(=O)O

Assays:
[1] = Mouse acute food intake study; assay type: in vivo; settings: male C57Bl/6 mice, s.c., dose 10 nmol/kg, cumulative food intake at 24 hr vs vehicle
Method: Male C57Bl/6 mice obtained from Jackson Laboratories or Charles River at 8-9 weeks of age and were housed one per cage in BioDaq (Research Diets) cages. Mice were placed on Alpha Dri bedding, standard chow diet (Envigo, 2018) and given water pouches. Mice were allowed to acclimate for 1-2 weeks. Body weight was measured to ensure appropriate acclimation. After acclimation, mice were sham dosed a minimum of 2 times prior to initiation of food intake study. On study day, mice were placed in clean cage bottoms, weighed, and fasted for 6-8 hours. Mice were sorted into groups based on average 24-hour food intake data and body weight. 1-2 hours prior to lights out, mice were dosed subcutaneously with one vehicle or test peptide dissolved in an appropriate vehicle at 5 mL/kg. Mice were left undisturbed and allowed access to food and water for 48 hours. Automated food intake was monitored in the BioDaq system was monitored during this time. Discrete food intake data was exported into MS Excel from which cumulative food intake data was generated and analyzed.

[2] = target: human GLP-1 receptor (hGLP-1R) (Homo sapiens, UniProt P43220); test: cAMP production (HTRF) in CHO cells expressing hGLP-1R; assay type: cell-based; parameters: expressed in transfected cells; settings: for EC50: cAMP in CHO hGLP-1R cells, geometric mean, read-out: hGLP-1R EC50; for % Relative Potency Ratio: % GLP-1R activity relative to GLP-1 / % GlucR activity relative to glucagon
human GLP-1 receptor (hGLP-1R), sequence (P43220 24-463): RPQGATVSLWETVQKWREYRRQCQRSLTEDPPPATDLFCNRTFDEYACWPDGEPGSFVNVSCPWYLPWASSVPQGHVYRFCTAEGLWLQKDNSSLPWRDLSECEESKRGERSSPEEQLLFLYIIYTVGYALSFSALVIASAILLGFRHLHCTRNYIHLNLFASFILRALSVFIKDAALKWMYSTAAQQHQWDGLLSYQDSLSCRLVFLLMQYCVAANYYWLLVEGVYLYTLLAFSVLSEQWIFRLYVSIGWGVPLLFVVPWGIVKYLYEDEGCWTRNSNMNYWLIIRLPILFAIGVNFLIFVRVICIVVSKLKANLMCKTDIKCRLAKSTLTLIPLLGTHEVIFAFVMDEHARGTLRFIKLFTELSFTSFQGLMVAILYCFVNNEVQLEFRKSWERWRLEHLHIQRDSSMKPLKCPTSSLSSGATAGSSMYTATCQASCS
In short: (§1)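 Read-out: HTRF cAMP (anti-cAMP cryptate donor, cAMP-d2 acceptor in conjugate/lysis buffer), converted to % Delta F and fitted by 4-parameter logistic for EC50. Cell densities were 1×10^5 cells/mL (hGLP-1R) or 2×10^5 cells/mL (hGCGR). Stimulation lasted 30 min at room temperature.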

[3] = target: human glucagon receptor (hGCGR) (Homo sapiens, UniProt P47871); test: cAMP production (HTRF) in CHO cells expressing hGCGR; assay type: cell-based; parameters: expressed in transfected cells; settings: cAMP in CHO hGCGR cells, geometric mean, read-out: hGluc-R EC50
human glucagon receptor (hGCGR), sequence (P47871 26-477): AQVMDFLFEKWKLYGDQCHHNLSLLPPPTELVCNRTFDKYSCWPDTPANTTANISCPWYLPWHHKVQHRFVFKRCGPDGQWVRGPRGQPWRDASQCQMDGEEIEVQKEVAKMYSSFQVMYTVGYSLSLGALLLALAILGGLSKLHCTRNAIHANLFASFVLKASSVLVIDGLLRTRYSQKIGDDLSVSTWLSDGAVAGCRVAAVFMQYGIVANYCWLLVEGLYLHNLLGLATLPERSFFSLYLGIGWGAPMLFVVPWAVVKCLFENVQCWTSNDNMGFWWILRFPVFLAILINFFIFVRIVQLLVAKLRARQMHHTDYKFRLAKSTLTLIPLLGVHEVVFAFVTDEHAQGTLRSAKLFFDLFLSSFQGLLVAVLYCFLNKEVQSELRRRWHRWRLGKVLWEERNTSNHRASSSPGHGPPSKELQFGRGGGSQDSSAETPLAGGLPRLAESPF
In short: as §1

[4] = Table 6, peptides modified at position 17
[5] = Table 7, peptides modified at position 20

Structure (SMILES) | EC50 [2, 4] [nM] | % Relative Potency Ratio ([2]; Table 6) | EC50 [3, 4] [nM] | EC50 [2, 5] [nM] | % Relative Potency Ratio ([2]; Table 7) | EC50 [3, 5] [nM] | 24 hr % Vehicle Food Intake [1] [%]
CCCCCCCCCCCCCCCC(=O)N[C@@H](CCC(=O)NCCOCCOCCOCCOCCC(=O)NCCCC[C@H](NC(=O)[C@@H](NC(=O)[C@H](CC(=O)O)NC(=O)[C@H](CC(C)C)NC(=O)[C@](C)(Cc1ccccc1)NC(=O)[C@H](CCCCN)NC(=O)[C@H](CO)NC(=O)[C@@H](NC(=O)[C@H](CC(=O)O)NC(=O)[C@H](CO)NC(=O)[C@@H](NC(=O)[C@H](Cc1ccccc1)NC(=O)[C@@H](NC(=O)CNC(=O)[C@H](CCC(N)=O)NC(=O)C(C)(C)NC(=O)[C@@H](N)Cc1c[nH]cn1)[C@@H](C)O)[C@@H](C)O)C(C)C)C(C)C)C(=O)N[C@@H](CCCNC(=N)N)C(=O)N[C@@H](C)C(=O)N[C@@H](CCC(N)=O)C(=O)N[C@@H](CC(=O)O)C(=O)N[C@@](C)(Cc1ccccc1)C(=O)N[C@H](C(=O)N[C@@H](CCC(=O)O)C(=O)NC(C)(C)C(=O)N[C@@H](CC(C)C)C(=O)N[C@@H](CCCC)C(=O)N[C@@H](CCC(=O)O)C(=O)N[C@H](C(N)=O)[C@@H](C)O)C(C)C)C(=O)O [Peptide 68] (H-H[Aib]QGTFTSDVSK[αMeF]LDVK([PEG4-γGlu-Palmitoyl])RAQD[αMeF]VE[Aib]L[Nle]ET-NH2; N-terminus assumed) | 0.0011 | 8.4 | 0.00467 |  |  |  | 74.2
CCCCCCCCCCCCCCCCCC(=O)N[C@@H](CCC(=O)N[C@@H](CCC(=O)NCCOCCOCCOCCOCCC(=O)NCCCC[C@H](NC(=O)[C@H](CO)NC(=O)[C@H](CC(=O)O)NC(=O)[C@H](CC(C)C)NC(=O)[C@](C)(Cc1ccccc1)NC(=O)[C@H](CCCCN)NC(=O)[C@H](CO)NC(=O)[C@@H](NC(=O)[C@H](CC(=O)O)NC(=O)[C@H](CO)NC(=O)[C@@H](NC(=O)[C@](C)(Cc1ccccc1)NC(=O)[C@H](CO)NC(=O)CNC(=O)[C@H](CCC(N)=O)NC(=O)C(C)(C)NC(=O)[C@@H](N)Cc1c[nH]cn1)[C@@H](C)O)C(C)C)C(=O)N[C@@H](C)C(=O)N[C@@H](C)C(=O)N[C@@H](CCC(N)=O)C(=O)N[C@@H](CC(=O)O)C(=O)N[C@@](C)(Cc1ccccc1)C(=O)N[C@H](C(=O)N[C@@H](CCC(=O)O)C(=O)NC(C)(C)C(=O)N[C@@H](CC(C)C)C(=O)N[C@@H](CCC(=O)O)C(=O)N[C@@H](C)C(=O)NCC(=O)NCC(N)=O)C(C)C)C(=O)O)C(=O)O [Peptide 71] (H-H[Aib]QGS[αMeF]TSDVSK[αMeF]LDSK([PEG4-γGlu-γGlu-Stearoyl])AAQD[αMeF]VE[Aib]LEAGG-NH2) | 0.00217 | 48.9 | 0.0537 |  |  |  | 80.6
CC(C)C[C@H](NC(=O)[C@H](Cc1c[nH]c2ccccc12)NC(=O)[C@H](CCC(N)=O)NC(=O)[C@@H](NC(=O)[C@H](Cc1ccccc1)NC(=O)[C@H](CC(=O)O)NC(=O)[C@H](CCCCNC(=O)COCCOCCNC(=O)COCCOCCNC(=O)CC[C@H](NC(=O)CCCCCCCCCCCCCCCCC(=O)O)C(=O)O)NC(=O)[C@H](C)NC(=O)[C@H](CCCNC(=N)N)NC(=O)[C@H](CCC(=O)O)NC(=O)[C@H](CO)NC(=O)[C@H](CC(=O)O)NC(=O)[C@H](CC(C)C)NC(=O)[C@](C)(Cc1ccccc1)NC(=O)[C@H](CCCCN)NC(=O)[C@H](CO)NC(=O)[C@@H](NC(=O)[C@H](CC(=O)O)NC(=O)[C@H](CO)NC(=O)[C@@H](NC(=O)[C@H](Cc1ccccc1)NC(=O)[C@@H](NC(=O)CNC(=O)[C@H](CCC(N)=O)NC(=O)C(C)(C)NC(=O)[C@@H](N)Cc1c[nH]cn1)[C@@H](C)O)[C@@H](C)O)C(C)C)C(C)C)C(=O)N[C@@H](CCC(=O)O)C(=O)N[C@@H](C)C(=O)NC(C)(C)C(=O)NCC(=O)O [Peptide 525] |  |  |  | 0.177 | 27.4 | 2.45 | 
CC(C)C[C@H](NC(=O)[C@H](Cc1c[nH]c2ccccc12)NC(=O)[C@H](C)NC(=O)[C@@H](NC(=O)[C@H](Cc1ccccc1)NC(=O)[C@H](CC(=O)O)NC(=O)[C@H](CCCCNC(=O)COCCOCCNC(=O)COCCOCCNC(=O)CC[C@H](NC(=O)CCCCCCCCCCCCCCCCC(=O)O)C(=O)O)NC(=O)[C@H](C)NC(=O)[C@H](CCCNC(=N)N)NC(=O)[C@H](CCC(=O)O)NC(=O)[C@H](CO)NC(=O)[C@H](CC(=O)O)NC(=O)[C@H](CC(C)C)NC(=O)[C@](C)(Cc1ccccc1)NC(=O)[C@H](CCCCN)NC(=O)[C@H](CO)NC(=O)[C@@H](NC(=O)[C@H](CC(=O)O)NC(=O)[C@H](CO)NC(=O)[C@@H](NC(=O)[C@H](Cc1ccccc1)NC(=O)[C@@H](NC(=O)CNC(=O)[C@H](CCC(N)=O)NC(=O)C(C)(C)NC(=O)[C@@H](N)Cc1c[nH]cn1)[C@@H](C)O)[C@@H](C)O)C(C)C)C(C)C)C(=O)N[C@@H](CCC(=O)O)C(=O)N[C@@H](C)C(=O)NC(C)(C)C(=O)NCC(=O)O [Peptide 526] |  |  |  | 0.194 | 7.0 | 0.69 | 

Now from value to molecule, other results behind:

EC50 [2, 4] [nM] | % Relative Potency Ratio ([2]; Table 6) | EC50 [3, 4] [nM] | EC50 [2, 5] [nM] | % Relative Potency Ratio ([2]; Table 7) | EC50 [3, 5] [nM] | Structure (SMILES) | 24 hr % Vehicle Food Intake [1] [%]
0.00203 | 14.6 | 0.0149 |  |  |  | CCCCCCCCCCCCCCCCCC(=O)N[C@@H](CCC(=O)N[C@@H](CCC(=O)NCCOCCOCCC(=O)NCCOCCOCCC(=O)NCCCC[C@H](NC(=O)[C@H](CO)NC(=O)[C@H](CC(=O)O)NC(=O)[C@H](CC(C)C)NC(=O)[C@@H](NC(=O)[C@H](CCCCN)NC(=O)[C@H](CO)NC(=O)[C@@H](NC(=O)[C@H](CC(=O)O)NC(=O)[C@H](CO)NC(=O)[C@@H](NC(=O)[C@](C)(Cc1ccccc1)NC(=O)[C@H](CO)NC(=O)CNC(=O)[C@H](CCC(N)=O)NC(=O)C(C)(C)NC(=O)[C@@H](N)Cc1c[nH]cn1)[C@@H](C)O)C(C)C)C(c1ccccc1)c1ccccc1)C(=O)N[C@@H](C)C(=O)N[C@@H](C)C(=O)N[C@@H](CCC(N)=O)C(=O)N[C@@H](CC(=O)O)C(=O)N[C@@](C)(Cc1ccccc1)C(=O)N[C@H](C(=O)N[C@@H](CCC(=O)O)C(=O)NC(C)(C)C(=O)N[C@@H](CC(C)C)C(=O)N[C@@H](C)C(=O)N[C@@H](CC(N)=O)C(=O)N[C@H](C(N)=O)[C@@H](C)O)C(C)C)C(=O)O)C(=O)O [Peptide 45] (H-H[Aib]QGS[αMeF]TSDVSK[Dip]LDSK([PEG2-PEG2-γGlu-γGlu-Stearoyl])AAQD[αMeF]VE[Aib]LANT-NH2; N-terminus assumed) | 76.2
0.00339 | 3.4 | 0.00591 |  |  |  | CCCCCCCCCCCCCCCCCC(=O)N[C@@H](CCC(=O)N[C@@H](CCC(=O)NCCOCCOCCC(=O)NCCOCCOCCC(=O)NCCCC[C@H](NC(=O)[C@H](CO)NC(=O)[C@H](CC(=O)O)NC(=O)[C@H](CC(C)C)NC(=O)[C@@H](NC(=O)[C@H](CCCCN)NC(=O)[C@H](CO)NC(=O)[C@@H](NC(=O)[C@H](CC(=O)O)NC(=O)[C@H](CO)NC(=O)[C@@H](NC(=O)[C@](C)(Cc1ccccc1)NC(=O)[C@H](CO)NC(=O)CNC(=O)[C@H](CCC(N)=O)NC(=O)[C@H](CO)NC(=O)[C@@H](N)Cc1c[nH]cn1)[C@@H](C)O)C(C)C)C(c1ccccc1)c1ccccc1)C(=O)N[C@@H](C)C(=O)N[C@@H](C)C(=O)N[C@@H](CCC(N)=O)C(=O)N[C@@H](CC(=O)O)C(=O)N[C@@](C)(Cc1ccccc1)C(=O)N[C@H](C(=O)N[C@@H](CCC(=O)O)C(=O)NC(C)(C)C(=O)N[C@@H](CC(C)C)C(=O)N[C@@H](CCC(=O)O)C(=O)N[C@@H](C)C(=O)NCC(=O)NCC(N)=O)C(C)C)C(=O)O)C(=O)O [Peptide 46] (H-HSQGS[αMeF]TSDVSK[Dip]LDSK([PEG2-PEG2-γGlu-γGlu-Stearoyl])AAQD[αMeF]VE[Aib]LEAGG-NH2; N-terminus assumed) | 72.1
